Values quoted from earlier work, collected in patent publication US8124767B2, “Luminescence biotin-transition metal complex conjugate, and method of amplifying signal using the same” (Samsung Electronics Co., Ltd., priority 2008, dated 2012).
Read-outs that look alike come from different tables or passages of the source.

Legend:
[1] = target: T1, avidin (Gallus gallus, UniProt P02701); conditions: HABA, comparison value; read-out: Kd (binding to avidin); cited from earlier work
T1 construct: purchased Aldrich

[2] = excitation 310 nm, 0.02 mM 2-MeTHF, cited from earlier work

T1 sequence (P02701 25-152): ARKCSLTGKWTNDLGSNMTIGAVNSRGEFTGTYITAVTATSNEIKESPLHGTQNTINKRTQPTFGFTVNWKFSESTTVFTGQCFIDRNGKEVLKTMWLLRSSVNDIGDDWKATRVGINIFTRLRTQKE

| SMILES | Kd [1] [µM] | T360 nm, lifetime of the donor peak ([2]; 77 K) [ns] | T411 nm, lifetime of the donor peak ([2]; 77 K) [s] | T360 nm, lifetime of the donor peak ([2]; 298 K) [ns] |
| --- | --- | --- | --- | --- |
| O=C(O)c1ccccc1N=Nc1ccc(O)cc1 [HABA, 4,4′-hydroxyazobenzene-2-carboxylic acid] | 6 |  |  |  |
| Cc1cc(-n2c3ccccc3c3ccccc32)cc(-n2c3ccccc3c3ccccc32)c1 [Probe 5mCP] |  | 8.2 | 7.0 | 6.6 |
